Data taken from US12540118B2, “Dendrene amide compound, bactericide and use thereof” (Jiangsu Flag Chemical Industry Co., Ltd., priority 2020, dated 2026).
Where two headings read alike, the source gives them in different places.

Columns and labels:
Erysiphe graminis = Erysiphe graminis potting method; assay type: in vivo; conditions: for pest or weed control at 100 µg/mL: Blumeria graminis, read-out: Erysiphe graminis control rating
Protocol: The fungicidal activity of the control agents and target compounds are determined. The test and investigation method refers to SOP-SC-1116 Erysiphe graminis potting method in disinfectant rolls written by KANGZHUO and GUBAOGEN in “Standard operation specification for testing biological activity of pesticides”.

Sphaerotheca fuliginea [1] = assay: Sphaerotheca fuliginea potting method; assay type: in vivo; conditions: 100 mg/L; for pest or weed control at 100 µg/mL: Podosphaera fuliginea, read-out: Sphaerotheca fuliginea control rating
Protocol: The fungicidal activity of the control agents and target compounds are determined. The test and investigation method refers to SOP-SC-1101 sphaerotheca fuliginea potting method in disinfectant rolls written by KANGZHUO and GUBAOGEN in “Standard operation specification for testing biological activity of pesticides”.

succinate dehydrogenase = biological target: T1, succinate dehydrogenase (Sus scrofa, UniProt A5GZW8+D0VWV4+Q007T0); assay: Enzyme activity assay, succinate dehydrogenase (DCIP reduction); assay type: biochemical, porcine; conditions: read-out: Inhibitors (10 μM, SQR)
T1 construct: isolated from porcine hearts; from tissue; host or cells: porcine heart
T1 sequence (Q0QF01 43-664 partner): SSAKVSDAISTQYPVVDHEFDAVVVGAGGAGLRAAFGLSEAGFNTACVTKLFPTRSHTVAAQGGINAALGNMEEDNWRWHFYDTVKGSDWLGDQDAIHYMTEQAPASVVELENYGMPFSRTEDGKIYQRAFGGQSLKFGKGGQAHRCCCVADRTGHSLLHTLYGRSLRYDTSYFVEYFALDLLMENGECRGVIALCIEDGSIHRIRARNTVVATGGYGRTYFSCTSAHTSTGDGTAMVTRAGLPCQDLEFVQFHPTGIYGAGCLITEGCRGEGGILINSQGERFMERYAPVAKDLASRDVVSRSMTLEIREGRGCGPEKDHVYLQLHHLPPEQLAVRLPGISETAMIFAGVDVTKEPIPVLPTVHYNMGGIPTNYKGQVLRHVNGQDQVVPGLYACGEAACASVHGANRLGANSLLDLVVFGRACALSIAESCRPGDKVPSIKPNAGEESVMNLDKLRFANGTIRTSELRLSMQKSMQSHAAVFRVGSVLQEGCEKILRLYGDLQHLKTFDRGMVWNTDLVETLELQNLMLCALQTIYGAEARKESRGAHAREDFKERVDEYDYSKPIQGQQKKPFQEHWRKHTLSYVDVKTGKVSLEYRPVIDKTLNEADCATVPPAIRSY
T1 sequence (Q007T0 29-280): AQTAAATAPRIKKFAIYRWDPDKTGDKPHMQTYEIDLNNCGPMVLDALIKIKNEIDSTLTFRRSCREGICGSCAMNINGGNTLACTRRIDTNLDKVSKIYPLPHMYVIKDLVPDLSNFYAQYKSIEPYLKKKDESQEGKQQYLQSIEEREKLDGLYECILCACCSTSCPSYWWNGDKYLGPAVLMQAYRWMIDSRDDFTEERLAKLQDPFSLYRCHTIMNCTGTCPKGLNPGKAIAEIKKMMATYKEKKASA
T1 sequence (D0VWV4 30-169): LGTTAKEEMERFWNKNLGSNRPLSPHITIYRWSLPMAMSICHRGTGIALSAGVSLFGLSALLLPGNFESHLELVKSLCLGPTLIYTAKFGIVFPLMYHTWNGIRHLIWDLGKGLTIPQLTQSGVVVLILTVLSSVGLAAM
T1 sequence (A5GZW8 57-159 limits assumed): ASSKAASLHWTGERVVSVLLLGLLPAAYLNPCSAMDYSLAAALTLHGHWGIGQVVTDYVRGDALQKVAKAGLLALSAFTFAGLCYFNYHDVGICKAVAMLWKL
Outline: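 Porcine heart succinate dehydrogenase (2 nM) in 100 mM sodium phosphate pH 7.4, 0.3 mM EDTA, 20 mM sodium succinate and 53 μM DCIP at 23° C with stirring. DCIP reduction followed at 600 nm (ε 21 mM^−1 cm^−1); linear slope minus baseline gives initial rate.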

Fusarium fujikura [2] = assay: Protective activity against rice bakanae disease; assay type: in vivo; conditions: 5 μg/mL, solvent DMSO
Text: (§1) Test of protective activity and therapeutic activity of Compound 1 against rice bakanae disease.
(§2) The test and investigation method refers to SOP-SC-1112 rice bakanae disease potting method in disinfectant rolls written by KANGZHUO and GUBAOGEN in “Standard operation specification for testing biological activity of pesticides”.
(§3) The phenamacril is a mainstream medicament for preventing and treating the rice bakanae disease at present, resistant strains are more and more along with long-time use, and […] strains showing sensitivity and one strain showing resistance to the […] are selected as test strains.
(§4) Four Fusarium fujikura SX18-32, SX18-50, SX18-59 and SX18-63 are selected for testing strains, and the current mainstream commercial bactericide phenamacril is selected as a positive control. Wherein SX18-32, SX18-50 and SX18-59 show sensitivity to phenamacril and SX18-63 show resistance to phenamacril.

Fusarium fujikura [3] = assay: Therapeutic activity against rice bakanae disease; assay type: in vivo; conditions: 5 μg/mL, solvent DMSO
Text: as §1, §2, §3, §4

Rhizoctonia cerealis = assay: Mycelial growth rate method; assay type: cell-based
Sphaerotheca fuliginea [4] = assay: Field test of sphaerotheca fuliginea; assay type: in vivo; conditions: 100 mg/L
Protocol: The test is carried out according to GB/T17980.30-2000 of pesticide field efficacy test guidelines. The survey method is to randomly take four points for each cell and survey all leaves of 2 plants per point. And investigating the sphaerotheca fuliginea incidence before the first application, and investigating the sphaerotheca fuliginea incidence 7 and 14 days after the second application respectively, and calculating the disease index and the controlling effect.

[5] = system: Fusarium wilt of water melon; assay: Mycelial growth rate method; assay type: cell-based
Phytophthora infestans = assay type: cell-based
Gibberella zeae = assay type: cell-based
Alternaria solani = assay: Mycelial growth rate method; assay type: cell-based
Corn big spot = assay: Mycelial growth rate method; assay type: cell-based
Sclerotinia sclerotiorum = assay: Mycelial growth rate method; assay type: cell-based
Alternaria alternata = assay: Mycelial growth rate method; assay type: cell-based
Phytophthora capsici = assay: Mycelial growth rate method; assay type: cell-based

SMILES: Cc1ccc(C(=C(Cl)Cl)C(C)N(C(=O)c2c(C(F)F)nn(C)c2F)C2CC2)cc1C (stereo not shown) [Compound 204]
- pest or weed control at 100 µg/mL (Erysiphe graminis; 100 mg/L): 80 to 100%
- pest or weed control at 100 µg/mL (Sphaerotheca fuliginea [1]): 80 to 100%
- inhibition at 10 µM (succinate dehydrogenase): > 90%

SMILES: Cc1cc(C)cc(C(=C(Cl)Cl)C(C)N(C(=O)c2c(C(F)F)nn(C)c2F)C2CC2)c1 (stereo not shown) [Compound 205]
- pest or weed control at 100 µg/mL (Erysiphe graminis; 100 mg/L): 80 to 100%
- pest or weed control at 100 µg/mL (Sphaerotheca fuliginea [1]): 80 to 100%
- inhibition at 10 µM (succinate dehydrogenase): > 90%

SMILES: CC(C(=C(Cl)Cl)c1ccc(Cl)cc1F)N(C(=O)c1c(C(F)F)nn(C)c1F)C1CC1 (stereo not shown) [Compound 206]
- pest or weed control at 100 µg/mL (Erysiphe graminis; 100 mg/L): 80 to 100%
- pest or weed control at 100 µg/mL (Sphaerotheca fuliginea [1]): 80 to 100%
- inhibition at 10 µM (succinate dehydrogenase): > 90%

SMILES: CC(C(=C(Cl)Cl)c1ccc(F)cc1Cl)N(C(=O)c1c(C(F)F)nn(C)c1F)C1CC1 (stereo not shown) [Compound 207]
- pest or weed control at 100 µg/mL (Erysiphe graminis; 100 mg/L): 80 to 100%
- pest or weed control at 100 µg/mL (Sphaerotheca fuliginea [1]): 80 to 100%
- inhibition at 10 µM (succinate dehydrogenase): > 90%

SMILES: CC(C(=C(Cl)Cl)c1cc(Cl)ccc1F)N(C(=O)c1c(C(F)F)nn(C)c1F)C1CC1 (stereo not shown) [Compound 208]
- pest or weed control at 100 µg/mL (Erysiphe graminis; 100 mg/L): 80 to 100%
- pest or weed control at 100 µg/mL (Sphaerotheca fuliginea [1]): 80 to 100%
- inhibition at 10 µM (succinate dehydrogenase): > 90%

SMILES: CC(C(=C(Cl)Cl)c1cc(C(F)(F)F)ccc1Cl)N(C(=O)c1c(C(F)F)nn(C)c1F)C1CC1 (stereo not shown) [Compound 209]
- pest or weed control at 100 µg/mL (Erysiphe graminis; 100 mg/L): 80 to 100%
- pest or weed control at 100 µg/mL (Sphaerotheca fuliginea [1]): 80 to 100%
- inhibition at 10 µM (succinate dehydrogenase): > 90%

SMILES: CC(C(=C(Cl)Cl)c1cccc(C(F)(F)F)c1Cl)N(C(=O)c1c(C(F)F)nn(C)c1F)C1CC1 (stereo not shown) [Compound 210]
- pest or weed control at 100 µg/mL (Erysiphe graminis; 100 mg/L): 80 to 100%
- pest or weed control at 100 µg/mL (Sphaerotheca fuliginea [1]): 80 to 100%
- inhibition at 10 µM (succinate dehydrogenase): > 90%

SMILES: CC(C(=C(Cl)Cl)c1ccc(C(F)(F)F)cc1Cl)N(C(=O)c1c(C(F)F)nn(C)c1F)C1CC1 (stereo not shown) [Compound 211]
- pest or weed control at 100 µg/mL (Erysiphe graminis; 100 mg/L): 80 to 100%
- pest or weed control at 100 µg/mL (Sphaerotheca fuliginea [1]): 80 to 100%
- inhibition at 10 µM (succinate dehydrogenase): > 90%

SMILES: CC(C(=C(Cl)Cl)c1ccc(S(C)(=O)=O)cc1Cl)N(C(=O)c1c(C(F)F)nn(C)c1F)C1CC1 (stereo not shown) [Compound 212]
- pest or weed control at 100 µg/mL (Erysiphe graminis; 100 mg/L): 80 to 100%
- pest or weed control at 100 µg/mL (Sphaerotheca fuliginea [1]): 80 to 100%
- inhibition at 10 µM (succinate dehydrogenase): > 90%

SMILES: CC(C(=C(Cl)Cl)c1cccc(S(C)(=O)=O)c1)N(C(=O)c1c(C(F)F)nn(C)c1F)C1CC1 (stereo not shown) [Compound 213]
- pest or weed control at 100 µg/mL (Erysiphe graminis; 100 mg/L): 80 to 100%
- pest or weed control at 100 µg/mL (Sphaerotheca fuliginea [1]): 80 to 100%
- inhibition at 10 µM (succinate dehydrogenase): > 90%

SMILES: CC(C(=C(Cl)Cl)c1ccccc1S(C)(=O)=O)N(C(=O)c1c(C(F)F)nn(C)c1F)C1CC1 (stereo not shown) [Compound 214]
- pest or weed control at 100 µg/mL (Erysiphe graminis; 100 mg/L): 80 to 100%
- pest or weed control at 100 µg/mL (Sphaerotheca fuliginea [1]): 80 to 100%
- inhibition at 10 µM (succinate dehydrogenase): > 90%

SMILES: CC(C(=C(Cl)Cl)c1cc(S(C)(=O)=O)ccc1Cl)N(C(=O)c1c(C(F)F)nn(C)c1F)C1CC1 (stereo not shown) [Compound 215]
- pest or weed control at 100 µg/mL (Erysiphe graminis; 100 mg/L): 80 to 100%
- pest or weed control at 100 µg/mL (Sphaerotheca fuliginea [1]): 80 to 100%
- inhibition at 10 µM (succinate dehydrogenase): > 90%

SMILES: CCS(=O)(=O)c1ccc(C(=C(Cl)Cl)C(C)N(C(=O)c2c(C(F)F)nn(C)c2F)C2CC2)cc1 (stereo not shown) [Compound 216]
- pest or weed control at 100 µg/mL (Erysiphe graminis; 100 mg/L): 80 to 100%
- pest or weed control at 100 µg/mL (Sphaerotheca fuliginea [1]): 80 to 100%
- inhibition at 10 µM (succinate dehydrogenase): > 90%

SMILES: CCS(=O)(=O)c1cccc(C(=C(Cl)Cl)C(C)N(C(=O)c2c(C(F)F)nn(C)c2F)C2CC2)c1 (stereo not shown) [Compound 217]
- pest or weed control at 100 µg/mL (Erysiphe graminis; 100 mg/L): 80 to 100%
- pest or weed control at 100 µg/mL (Sphaerotheca fuliginea [1]): 80 to 100%
- inhibition at 10 µM (succinate dehydrogenase): > 90%

SMILES: CC(C(=C(Cl)Cl)c1ccc(C#CC2CC2)cc1Cl)N(C(=O)c1c(C(F)F)nn(C)c1F)C1CC1 (stereo not shown) [Compound 218]
- pest or weed control at 100 µg/mL (Erysiphe graminis; 100 mg/L): 80 to 100%
- pest or weed control at 100 µg/mL (Sphaerotheca fuliginea [1]): 80 to 100%
- inhibition at 10 µM (succinate dehydrogenase): > 90%

SMILES: CC(C(=C(Cl)Cl)c1ccc(C#CC2CC2)cc1F)N(C(=O)c1c(C(F)F)nn(C)c1F)C1CC1 (stereo not shown) [Compound 219]
- pest or weed control at 100 µg/mL (Erysiphe graminis; 100 mg/L): 80 to 100%
- pest or weed control at 100 µg/mL (Sphaerotheca fuliginea [1]): 80 to 100%
- inhibition at 10 µM (succinate dehydrogenase): > 90%

SMILES: CCOC(=O)C(C#N)=C(N)c1ccccc1 [Phenamacril, reference compound]
- Protective activity (Fusarium fujikura [2]; strain SX18-32 (S)): 83.6%
- Protective activity (Fusarium fujikura [2]; strain SX18-59 (S)): 58.8%
- Protective activity (Fusarium fujikura [2]; strain SX18-63 (R)): 19.6%
- Therapeutic activity (Fusarium fujikura [3]; strain SX18-32 (S)): 23.8%
- Therapeutic activity (Fusarium fujikura [3]; strain SX18-59 (S)): 50.0%
- Therapeutic activity (Fusarium fujikura [3]; strain SX18-59 (S), listed as phenamacril): about 50%
- Therapeutic activity (Fusarium fujikura [3]; strain SX18-63 (R)): 0%
- Therapeutic activity (Fusarium fujikura [3]; strain SX18-63 (R), listed as phenamacril): almost no therapeutic activity

SMILES: CON(C(=O)c1cn(C)nc1C(F)F)C(C)Cc1c(Cl)cc(Cl)cc1Cl (stereo not shown) [Pydiflumetofen, reference compound]
- Inhibition ratio (%) Rhizoctonia cerealis (Rhizoctonia cerealis; 1.5625 μg/mL): A (80% ≤ A ≤ 100%)
- Inhibition ratio (%) Rhizoctonia cerealis (Rhizoctonia cerealis; 6.25 μg/mL): A (80% ≤ A ≤ 100%)
- Inhibition ratio (%) Rhizoctonia cerealis (Rhizoctonia cerealis; 25 μg/mL): A (80% ≤ A ≤ 100%)
- Controlling effect % (Sphaerotheca fuliginea [4]): 92%
- Inhibition ratio (%) Fusarium wilt of water melon ([5]; 1.5625 μg/mL): A (80% ≤ A ≤ 100%)
- Inhibition ratio (%) Fusarium wilt of water melon ([5]; 6.25 μg/mL): A (80% ≤ A ≤ 100%)
- Inhibition ratio (%) Fusarium wilt of water melon ([5]; 25 μg/mL): A (80% ≤ A ≤ 100%)
- Inhibition ratio (%) Phytophthora infestans (Phytophthora infestans; 1.5625 μg/mL): A (80% ≤ A ≤ 100%)
- Inhibition ratio (%) Phytophthora infestans (Phytophthora infestans; 6.25 μg/mL): A (80% ≤ A ≤ 100%)
- Inhibition ratio (%) Phytophthora infestans (Phytophthora infestans; 25 μg/mL): A (80% ≤ A ≤ 100%)
- Erysiphe graminis control rating (Erysiphe graminis; 6.25 mg/L): A (80% ≤ A ≤ 100%)
- Erysiphe graminis control rating (Erysiphe graminis; 25 mg/L): A (80% ≤ A ≤ 100%)
- Erysiphe graminis control rating (Erysiphe graminis; 100 mg/L): A (80% ≤ A ≤ 100%)
- Inhibition ratio (%) Gibberella zeae (Gibberella zeae; 1.5625 μg/mL): A (80% ≤ A ≤ 100%)
- Inhibition ratio (%) Gibberella zeae (Gibberella zeae; 6.25 μg/mL): A (80% ≤ A ≤ 100%)
- Inhibition ratio (%) Gibberella zeae (Gibberella zeae; 25 μg/mL): A (80% ≤ A ≤ 100%)
- Inhibition ratio (%) Alternaria solani (Alternaria solani; 1.5625 μg/mL): A (80% ≤ A ≤ 100%)
- Inhibition ratio (%) Alternaria solani (Alternaria solani; 6.25 μg/mL): A (80% ≤ A ≤ 100%)
- Inhibition ratio (%) Alternaria solani (Alternaria solani; 25 μg/mL): A (80% ≤ A ≤ 100%)
- Inhibition ratio (%) Corn big spot (Corn big spot; 1.5625 μg/mL): A (80% ≤ A ≤ 100%)
- Inhibition ratio (%) Corn big spot (Corn big spot; 6.25 μg/mL): A (80% ≤ A ≤ 100%)
- Inhibition ratio (%) Corn big spot (Corn big spot; 25 μg/mL): A (80% ≤ A ≤ 100%)
- Inhibition ratio (%) Sclerotinia sclerotiorum (Sclerotinia sclerotiorum; 1.5625 μg/mL): C (C <70%)
- Inhibition ratio (%) Sclerotinia sclerotiorum (Sclerotinia sclerotiorum; 6.25 μg/mL): A (80% ≤ A ≤ 100%)
- Inhibition ratio (%) Sclerotinia sclerotiorum (Sclerotinia sclerotiorum; 25 μg/mL): A (80% ≤ A ≤ 100%)
- Sphaerotheca fuliginea control rating (Sphaerotheca fuliginea [1]): A (80% ≤ A ≤ 100%)
- Inhibition ratio (%) Alternaria alternata (Alternaria alternata; 1.5625 μg/mL): A (80% ≤ A ≤ 100%)
- Inhibition ratio (%) Alternaria alternata (Alternaria alternata; 6.25 μg/mL): A (80% ≤ A ≤ 100%)
- Inhibition ratio (%) Alternaria alternata (Alternaria alternata; 25 μg/mL): A (80% ≤ A ≤ 100%)
- Inhibition ratio (%) Phytophthora capsici (Phytophthora capsici; 1.5625 μg/mL): B (70% ≤ B < 80%)
- Inhibition ratio (%) Phytophthora capsici (Phytophthora capsici; 6.25 μg/mL): A (80% ≤ A ≤ 100%)
- Inhibition ratio (%) Phytophthora capsici (Phytophthora capsici; 25 μg/mL): A (80% ≤ A ≤ 100%)
